Data published in patent EP4786485A1, “STRAIGHT CHAIN PEPTIDE COMPOUND AND USE THEREOF” (Shenzhen Zhongge Biological Technology Co., Ltd., priority 2023, dated 2026).
Where a SMILES comes first, the peptide text is derived from it. [ ]: non-standard residue; d: D form. The star is where a group is joined. Biotin = O=C1N[C@H]2[C@H](CS[C@H]2CCCCC(=O)*)N1; Phe(3,4-Cl2) = N[C@@H](Cc1ccc(Cl)c(Cl)c1)C(=O)O; Lys(Me3) = C[N+](C)(C)CCCC[C@H](N)C(=O)O; Phe(4-Me) = Cc1ccc(C[C@H](N)C(=O)O)cc1; Palmitoyl = CCCCCCCCCCCCCCCC(=O)*; Hyp = O=C(O)[C@@H]1C[C@@H](O)CN1; Ahp = NCCCCCCC(=O)O

Columns and labels:
Type in all cases: cell-based, Human
[1] = system: Collagen I (type I collagen); experiment: ELISA: effect of increasing the content of Collagen I in fibroblasts; set-up: Effect of increasing the content of Collagen I in the fibroblasts: unit not given here; details: 1 µM, 24 h; for Effect of increasing the content of Collagen I in the fibroblasts: human-derived fibroblasts, ELISA, blank control BC = 35.6; for increase in the content of type I collagen (Collagen I): in words, compared to the BC, fibroblasts
Experimental: (§1) B. Effects of increasing the contents of Collagen I (type I collagen), hyaluronic acid (HA), and Elastin (ELN) in fibroblasts
(§2) Test materials: Human-derived fibroblasts (Guangdong BioCell Biotechnology Co., Ltd., Lot No. Fb20081902), DMEM culture medium (Gibco, 23042301, expiration date 230522), PBS (Solarbio, P1010), TGF-β1 (Peprotech, 230504), Collagen I ELISA Kit (Cusabio, B21025824), Elastin ELISA Kit (Abcam, GR3446070-2), HA ELISA Kit (RD, P325066), CO2 incubator (Thermo, 150I), super-clean bench (AIRTECH, SW-CJ-1F), and microplate reader (BioTek, Epoch).
(§3) Test methods: • 1) Inoculation: After cell resuscitation, the cells were inoculated into 6-well plates when the plating rate reached around 60%, and were incubated overnight in an incubator (37°C, 5% CO2). • 2) Formulation of solutions: The linear peptide compounds in the sample groups, and PC2 (Biotinoyl-GHK, [drawing 69] ) and PC3 ( [drawing 70] ) in the positive control group were all at the concentration of 1 µM, and the test substance working solutions were formulated. • 3) Administration: When the cell plating rate in the 6-well plates reached 40% to 60%, administration was performed at 2 mL per well. Three duplicate wells were set for each group. Incubation was performed in an incubator (37°C, 5% CO2) for 24 h. • 4) ELISA assay: The ELISA assays were performed according to the instructions of the respective ELISA kits, with the detection indicators being effect of increasing the content of Collagen I in the fibroblasts, effect of increasing the content of HA in the fibroblasts, and effect of increasing the content of Elastin in the fibroblasts, respectively.

hyaluronic acid (HA) = experiment: ELISA: effect of increasing the content of HA in fibroblasts; set-up: Effect of increasing the content of HA in the fibroblasts: unit not given here; details: 1 µM, 24 h; for Effect of increasing the content of HA in the fibroblasts: human-derived fibroblasts, ELISA, blank control BC = 1402.44; for increase in the content of hyaluronic acid (HA): in words, compared to the BC, fibroblasts
Experimental: as §1, §2, §3

Elastin (ELN) = experiment: ELISA: effect of increasing the content of Elastin in fibroblasts; set-up: Effect of increasing the content of Elastin in the fibroblasts: unit not given here; details: 1 µM; for Effect of increasing the content of Elastin in the fibroblasts: 24 h incubation, ELISA, blank control (BC) 756.52; for increase in the content of Elastin: in words, compared to the BC, 24 h, fibroblasts
Experimental: as §1, §2, §3

Row | SMILES | Effect of increasing the content of Collagen I in the fibroblasts [1] | increase in the content of type I collagen (Collagen I) [1] | Effect of increasing the content of HA in the fibroblasts (hyaluronic acid (HA)) | increase in the content of hyaluronic acid (HA) (hyaluronic acid (HA)) | Effect of increasing the content of Elastin in the fibroblasts (Elastin (ELN)) | increase in the content of Elastin (Elastin (ELN))
1 | CCCCCCCCCCCCCCCC(=O)N[C@@H](Cc1ccc(OCC)cc1)C(=O)N[C@@H](C)C(=O)N[C@@H](CCCCN)C(=O)N[C@@H](Cc1c[nH]cn1)C(=O)NCC(=O)N[C@@H](CCCC[N+](C)(C)C)C(=O)O [compound 417] (Palmitoyl-Y(Et)AKHG[Lys(Me3)]-OH) | 92.88 | significant increase | 1938.51 | significant increase | 861.32 | significant increase
2 | NCCCC[C@H](NC(=O)[C@H](Cc1c[nH]cn1)NC(=O)CNC(=O)[C@@H]1CCCN1C(=O)[C@@H]1CCCN1C(=O)[C@@H]1CCCN1C(=O)CCCC[C@@H]1SC[C@@H]2NC(=O)N[C@@H]21)C(N)=O [compound 296] (Biotin-PPPGHK-NH2) | 88.1 | significant increase | 1686.42 | significant increase | 930.98 | significant increase
3 | CNC(=O)[C@H](Cc1ccc(C)cc1)NC(=O)[C@H](CCCCNC(=O)[C@@H]1C[C@@H](O)CN1)NC(=O)[C@H](Cc1c[nH]cn1)NC(=O)CNC(=O)[C@H](CCCC[N+](C)(C)C)NC(C)=O [compound 373] (Ac-[Lys(Me3)]GHK(Hyp)[Phe(4-Me)]-NHMe) | 57.84 | significant increase | 2472.81 | significant increase | 843.14 | significant increase
4 | CNC(=O)[C@H](Cc1ccc(C)cc1)NC(=O)[C@H](C)NC(=O)[C@H](CCCCN)NC(=O)[C@H](Cc1c[nH]cn1)NC(=O)CNC(=O)[C@H](CCCC[N+](C)(C)C)NC(C)=O [compound 337] (Ac-[Lys(Me3)]GHKA[Phe(4-Me)]-NHMe) | 95.66 | significant increase | 2421.21 | significant increase | 1320.95 | significant increase
5 | CNC(=O)[C@H](CCCCN)NC(=O)[C@H](Cc1c[nH]cn1)NC(=O)CNC(=O)[C@H](C)NC(=O)[C@H](C)NC(=O)[C@H](C)NC(=O)[C@H](CCCCN)NC(=O)[C@H](Cc1c[nH]cn1)NC(=O)CNC(C)=O [compound 23] (Ac-GHKAAAGHK-NHMe) | 46.06 | significant increase | 2533.64 | significant increase | 1097.64 | significant increase
6 | CCCCCCCCCCCCCCCC(=O)N[C@@H](CCCC[N+](C)(C)C)C(=O)NCC(=O)N[C@@H](Cc1c[nH]cn1)C(=O)N[C@@H](CCCCNC(=O)[C@@H]1CCCN1)C(=O)N[C@@H](Cc1ccc(C)cc1)C(=O)O [compound 397] (Palmitoyl-[Lys(Me3)]GHK(Pro)[Phe(4-Me)]-OH) | 54.45 | significant increase | 1832.87 | significant increase | 1115.1 | significant increase
7 | CNC(=O)[C@H](CCCC[N+](C)(C)C)NC(=O)CNC(=O)[C@H](Cc1c[nH]cn1)NC(=O)[C@H](CCCCN)NC(=O)[C@H](Cc1ccc(C)cc1)NC(C)=O [compound 358] (Ac-[Phe(4-Me)]KHG[Lys(Me3)]-NHMe) | 81.27 | significant increase | 1913.78 | significant increase | 1133.42 | significant increase
8 | CCCCCCCCCCCCCCCC(=O)N[C@@H](CCCC[N+](C)(C)C)C(=O)NCC(=O)N[C@@H](Cc1c[nH]cn1)C(=O)N[C@@H](CCCCNC(=O)[C@@H]1C[C@@H](O)CN1)C(=O)N[C@@H](Cc1ccc(C)cc1)C(=O)O [compound 403] (Palmitoyl-[Lys(Me3)]GHK(Hyp)[Phe(4-Me)]-OH) | 97.51 | significant increase | 2688.75 | significant increase | 928.61 | significant increase
9 | CNC(=O)[C@H](Cc1ccc(Cl)c(Cl)c1)NC(=O)[C@H](C)NC(=O)[C@H](CCCCN)NC(=O)[C@H](Cc1c[nH]cn1)NC(=O)CNC(=O)[C@H](CCCC[N+](C)(C)C)NC(C)=O [compound 338] (Ac-[Lys(Me3)]GHKA[Phe(3,4-Cl2)]-NHMe) | 89.07 | significant increase | 1913.07 | significant increase | 1060.72 | significant increase
10 | CNC(=O)CNC(=O)[C@H](Cc1c[nH]cn1)NC(=O)[C@H](CCCCN)NC(=O)CCCCCCNC(C)=O [compound 77] (Ac-[Ahp]KHG-NHMe) | 89.94 | significant increase | 3493 | significant increase | 1093.49 | significant increase
11 | CCCCCCCCCCCCCCCC(=O)N[C@@H](CCCC[N+](C)(C)C)C(=O)N[C@@H](C)C(=O)N[C@@H](C)C(=O)N[C@@H](C)C(=O)NCC(=O)N[C@@H](Cc1c[nH]cn1)C(=O)N[C@@H](CCCCN)C(=O)O [compound 234] (Palmitoyl-[Lys(Me3)]AAAGHK-OH) | 49.53 | significant increase | 2356.91 | significant increase | 900.83 | significant increase
